Experimental data from patent EP1785417A2, “Novel non-psychotropic cannabinoids” (priority 2000, dated 2001).
Like-named read-outs stand apart in the source and are kept apart here.

Tests used:
NMDA receptor = test: Radioligand binding: displacement of [3H]MK-801 from rat forebrain membranes; settings: for NMDA receptor binding / affinity: MK-801 binding to membranes
Description: (§1) Evaluation of the therapeutic effects of the novel PRS-211 compounds has now been carried out in a series of experimental systems to support the utility of these drugs as neuroprotectants, anti-inflammatory agents and anti-oxidative agents. These effects have been evaluated both in vitro and in vivo, and have been corroborated utilizing the following systems: • (a) Binding to the NMDA receptor linked channel: Non competitive antagonists of NMDA, the primary example of which is the compound MK-801, bind to a site within the NMDA receptor channel thus preventing the activation of the receptor-channel complex and the consequent neurotoxicity. The ability of various compounds to compete with the binding of tritium labeled MK-801 to brain membranes is considered a measure of their potency as NMDA non-competitive antagonists. • (b) Inhibition of prostaglandin production: The inhibitory effect of the new derivatives of Dexanabinol on prostaglandin synthesis is evaluated in macrophage cell cultures following LPS exposure to induce the inflammatory response. These assays are an indication of the anti-inflammatory activity of the individual analogs. • (c) Inhibition of Tumor Necrosis Factor Alpha: Specific aspects of the inflammatory response cascade are mediated by the cytokine TNFα. Inhibition of TNFα production and/or inhibition of TNFα release by the new analogs are assayed in macrophage cell cultures activated with LPS. This serves as another indication of the general anti-inflammatory potential of the novel compounds. • (d) Nitric Oxide Assay: As one aspect of the anti-oxidative potential of the novel analogs they were tested for their ability to inhibit the enzyme nitric oxide synthase (NOS). This assay can also serve as another indication of the anti-inflammatory cascade, as well as the anti-oxidative mechanisms. • (e) Ear Edema model: The anti-inflammatory activity of the new analogs is screened using an ear edema model in mice. This test system utilizes Croton oil or Arachidonic acid as inflammation inducers. The ability of the test compounds to prevent or diminish the inflammatory response to these stimulants is indicative of their systemic anti-inflammatory capability. • (f) Improved clinical outcome after closed head injury in rats: Severe head injury is associated with high mortality and severe neurological impairment. Animals subjected to head trauma in a controlled fashion serve as models in which to test drugs of therapeutic potential. Test compounds can be evaluated both for improved clinical outcome and for reduction of edema induced by closed head injury. The ability of compounds to reduce the severity of neurological symptoms and to reduce brain edema is considered a measure of their potency in reducing brain damage. • (g) Transient Middle cerebral artery occlusion (MCAo): The middle cerebral artery is the cerebral blood vessel most susceptible to stroke in humans. In animals, coagulation, permanent ligation or permanent placement of an occluding thread in the artery produces a permanent focal stroke affecting the MCA territory. Transient ligation or occlusion results in transient focal stroke. Both transient and permanent focal strokes result in varying degrees of edema and infarction in the affected brain regions. The ability of compounds to reduce the volumes of edema and infarction is considered a measure of their potential as anti-stroke treatment. • (h) Optic Nerve Crush: Application of mechanical pressure to the rat optical nerve results in crush injury of the axons, which is accompanied by immediate changes in oxidative metabolism and delayed axonal death and blindness. […]

PGE2 = test: Inhibition of prostaglandin synthesis (PGE2) in LPS-stimulated macrophage cell cultures; format: cell-based; settings: LPS-stimulated macrophages
Description: as §1

TNFα = test: Inhibition of TNFα in LPS-stimulated macrophage cell cultures (ELISA); format: cell-based; settings: LPS-stimulated macrophages
Description: as §1

[1] = test system: Nitric Oxide Synthase (NOS); test: Inhibition of nitric oxide synthase (nitrite fluorimetric assay, LPS-stimulated macrophage cultures); format: cell-based; settings: LPS-stimulated macrophages
Description: as §1

ear edema model in mice = test: Ear edema model; format: in vivo; settings: Mus musculus, Croton oil (CO) as inducer, IP
Description: as §1

[2] = test system: transient middle cerebral artery occlusion in rats; test: Transient middle cerebral artery occlusion (MCAo), infarct size evaluation; format: in vivo; settings: for Mortality rate: 5 mg/kg IV at 2+0 hours
Description: Experimental design. The design was a randomized one, performed in a masked fashion as to whether drug or vehicle was being given, and an attempt was made to generate approximately equal numbers of drug- and vehicle-treated animals.
• a. Male rats (8 /treatment group) 320-380 gr. (Harlan Israel). • b. Halothane (Rhone Poulenc France) • c. Pentobarbitone (Pental Veterinary, CTS Israel). • d. Poly - L - Lysine (Sigma, USA). • e. Silk suture material 3-0 and 4-0. • f. Nylon (Polyamid) suture material 3-0. Four cm pieces were cut and positioned in a solution of 1% Poly - L - Lysine for 1 minute and dried in an oven (60 ° C) for 60 minutes. The tip of each piece was rounded under a flame. • g. Saline (Teva Medical). • h. Blank cremophor ethanol cosolvent (Pharmos). • i. Dexanabinol in cremophor ethanol cosolvent 50 mg/ml. (Both Dexanabinol and its vehicle were diluted in saline prior to drug administration. • j. Analogs PRS-211,092, PRS-211,095, PRS-211,128 PRS-211,132 and PRS-211,220 in cremophor ethanol cosolvent, 50 mg/ml. • k. The analogs were diluted in saline prior to drug administration.
• a. Surgical details of the MCAo method used for testing dexanabinol analogs, are presented in Belayev, et al., (Belayev, Busto, Weizhao, and Ginsberg, Stroke 26:2313-2319, 1995) which is incorporated herein in its entirety by reference. • b. Two hours after the start of MCAO, the animals were reanesthetized with halothane, the neck wound was re-opened and the nylon thread pulled out of the Internal carotid artery (ICA). The skin wound was then closed with 3-0 silk suture material and the animals allowed to recover from the anesthesia. • c. Three sets of animals were tested. In the first test immediately (2+0 hours) before thread removal the animals were injected IV with either analogs PRS-211,095, PRS-211,128, PRS-211,132, or Dexanabinol (PRS-211,007) each at a dosage of 5 mg/kg. One group of animals was treated with 5ml/kg vehicle alone. In another group, the animals subjected to "sham" operation, the suture was passed into the ICA, as described above, but immediately withdrawn. In the second set dexanabinol, PRS-211,092, PRS-211,095 and PRS-211,220 were used, at 2+0 hours. In the third set dexanabinol, PRS-211,092, PRS-211,095 and PRS-211,220 were administered 1 hour after thread removal (2+1 hours). Laser Doppler Flow (LDF) determined the success of MCAo - a drop of more then 50% in cerebral blood flow was considered as a sign of successful MCAo. Although LDF was a helpful corroborative sign, clinical outcome remained the final inclusion/exclusion criterion, since, with the exception of the PRS-211,220 staircase study, LDF was introduced only after initiation of the study.
A detailed investigation of neurological performance was carried out on the first, third and the 7th day after the MCAo. Two parameters were examined: posture and the flexion reflex (based on Nokon and Chuang, NeuroReport 9, 1998: 2081-2084). Animals were scored according to their performance:
One week after the ischemic insult, animals were euthanized with pentobarbitone 100 mg/kg IP. The animals were perfused through the heart with heparinized 4% formaldehyde solution in PBS (pH 7.4). Brains were then removed, and kept in the same solution before preparation for histological evaluation of the brain infarct volume.

[3] = displacement of [3H]MK-801, rat forebrain membranes, read-out: NMDA BINDING IC50
[4] = [3H]MK-801 binding, text to Figure 2, read-out: mean IC50

SMILES	NMDA receptor binding / affinity (NMDA receptor)	IC50 (NMDA receptor; [3]) [µM]	inhibition at 10 µM (PGE2) [%]	inhibition at 10 µM (TNFα) [%]	inhibition at 10 µM [1] [%]	IC50 (NMDA receptor; [4]) [µM]	ED50 (ear edema model in mice) [µmol/kg]	function, reduction of mortality and brain morphometry [2]	Mortality rate [2]	reduction of infarct size ([2]; IV, one week after the ischemic insult) [%]
CCCCCCC(C)(C)c1cc(O)c2c(c1)OC(C)(C)[C@H]1CC=C(CN3CCC(C)CC3)C[C@H]21 (single isomer, unassigned) [211,251-000]	do not exhibit substantial NMDA receptor binding	> 100	91	0	37	–	–	–	–	–
CCCCCCC(C)(C)c1cc(O)c2c(c1)OC(C)(C)[C@H]1CC=C(CN3CCC(N4CCCCC4)CC3)C[C@H]21 (single isomer, unassigned) [211,257-000]	do not exhibit substantial NMDA receptor binding	> 100	88	10	39	–	–	–	–	–
CCCCCCC(C)(C)c1cc(O)c2c(c1)OC(C)(C)[C@H]1CC=C(CN3CCCC3)C[C@H]21 (stereo in doubt) [211,128-000]	no detectable affinity	> 20	84	48	27	> 20	23	inactive	around 25%	–
CCCCCCC(C)(C)c1cc(O)c2c(c1)OC(C)(C)[C@H]1CC=C(CN3CCCCC3)C[C@H]21 (stereo in doubt) [211,159-000]	–	> 20	87	33	27	–	–	–	–	–
CCCCCCC(C)(C)c1cc(O)c2c(c1)OC(C)(C)[C@H]1CC=C(CC#N)C[C@H]21 [211,006-000]	–	8	41	46	19	–	104	–	–	–
CCCCCCC(C)(C)c1cc(O)c2c(c1)OC(C)(C)[C@H]1CC=C(C[S+](C)[O-])C[C@H]21 (stereo partly drawn) [211,041-000]	–	6	56	23	72	–	39	–	–	–
CCCCCCC(C)(C)c1cc(O)c2c(c1)OC(C)(C)[C@H]1CC=C(CNC(C)=O)C[C@H]21 [211,044-000]	–	6	24	0	–	–	–	–	–	–
CC(C)(C)c1cc(O)c2c(c1)OC(C)(C)[C@H]1CC=C(CO)C[C@H]21 [211,047-000]	–	100	28	0	–	–	–	–	–	–
CCCCCCC(C)(C)c1cc(O)c2c(c1)OC(C)(C)[C@H]1CC=C(Cn3cncn3)C[C@H]21 [211,102-000]	–	2.5	–	–	–	–	–	–	–	–
CCCCCCC(C)(C)c1cc(O)c2c(c1)OC(C)(C)[C@H]1CC=C(Cn3cnnc3)C[C@H]21 [211,103-000]	–	3	–	–	–	–	–	–	–	–
CCCCCCC(C)(C)c1cc(O)c2c(c1)OC(C)(C)[C@H]1CC=C(Cc3cccs3)C[C@H]21 [211,118-000]	–	32	–	–	–	–	–	–	–	–
CCCCCCC(C)(C)c1cc(O)c2c(c1)OC(C)(C)[C@H]1CC=C(Cc3ccccc3)C[C@H]21 [211,119-000]	–	62	14	–	–	–	–	–	–	–
CCCCCCC(C)(C)c1cc(O)c2c(c1)OC(C)(C)[C@H]1CC=C(CN3CCOCC3)C[C@H]21 [211,132-000]	–	4.5	61	21	40	4.5	70	–	around 25%	–
CCCCCCC(C)(C)c1cc(O)c2c(c1)OC(C)(C)[C@H]1CC=C(CN3CCNCC3)C[C@H]21 [211,133-000]	–	> 100	–	–	–	–	–	–	–	–
CCCCCCC(C)(C)c1cc(O)c2c(c1)OC(C)(C)[C@H]1CC=C(CN3CCNC(C)C3)C[C@H]21 (stereo partly drawn) [211,134-000]	–	> 100	–	–	–	–	–	–	–	–
CCCCCCC(C)(C)c1cc(O)c2c(c1)OC(C)(C)[C@H]1CC=C(CN3CC=CCC3)C[C@H]21 [211,145-000]	–	13	63	15	60	–	–	–	–	–
CCCCCCC(C)(C)c1cc(O)c2c(c1)OC(C)(C)[C@H]1CC=C(CN3CCN=C3SC)C[C@H]21 [211,204-000]	–	10	83	28	85	–	34	–	–	50
CCCCCCC(C)(C)c1cc(O)c2c(c1)OC(C)(C)[C@H]1CC=C(COCC(O)CO)C[C@H]21 (stereo partly drawn) [211,211-000]	–	4.6	83	18	0	–	–	–	–	–
CCCCCCC(C)(C)c1cc(O)c2c(c1)OC(C)(C)[C@H]1CC=C(CN3CC=CC3)C[C@H]21 [211,212-000]	–	7.5	96	14	0	–	–	–	–	–
CCCCCCC(C)(C)c1cc(O)c2c(c1)OC(C)(C)[C@H]1CC=C(CN3CCC(N4CCCC4)CC3)C[C@H]21 [211,253-000]	do not exhibit substantial NMDA receptor binding	> 100	92	0	27	–	–	–	–	–
CCCCCCC(C)(C)c1cc(O)c2c(c1)OC(C)(C)[C@H]1CC=C(CN(Cc3ccccc3)c3ccccc3)C[C@H]21 [211,255-000]	do not exhibit substantial NMDA receptor binding	> 100	94	0	7	–	–	–	–	–
